Measurements as given in patent US20240148821A1, “PHARMACEUTICAL USE OF CYCLIC PEPTIDE COMPOUND” (CHUGAI SEIYAKU KABUSHIKI KAISHA, priority 2021, published 2024).
Numbered stars: 1 amine (or outer) side, 2 acyl side, 3 side chain; on linkers, the order of the positions; unused ones are H or OH. Bridge positions count the residues as written; N and C are the ends. Square brackets hold non-standard residues; d marks the D form. Peptide text beside a SMILES is read from it. * marks the point of attachment. hPhe(3,5-F2-4-CF3) = N[C@@H](CCc1cc(F)c(C(F)(F)F)c(F)c1)C(=O)O; hPhe(3-Cl-4-CF3) = N[C@@H](CCc1ccc(C(F)(F)F)c(Cl)c1)C(=O)O; hPhe(3-F,4-CF3) = N[C@@H](CCc1ccc(C(F)(F)F)c(F)c1)C(=O)O; 3Oxa8azabicyclo(3.2.1)octane = C1CC2COCC1N2*; NMePhe(4-Cl) = CN[C@@H](Cc1ccc(Cl)cc1)C(=O)O; NMePhe(4-Me) = CN[C@@H](Cc1ccc(C)cc1)C(=O)O; NMePhe(2-Cl) = CN[C@@H](Cc1ccccc1Cl)C(=O)O; NMedβ3hAla = C[C@H](CC(=O)[*:2])N(C)[*:1]; NMeGly(cPent) = CN[C@H](C(=O)O)C1CCCC1; NMe3Pal = CN[C@@H](Cc1cccnc1)C(=O)O; NMeCha = CN[C@@H](CC1CCCCC1)C(=O)O; NMehLeu = CN[C@@H](CCC(C)C)C(=O)O; NMeChg = CN[C@H](C(=O)O)C1CCCCC1; NMeF = CN[C@@H](Cc1ccccc1)C(=O)O; NMeI = CC[C@H](C)[C@H](NC)C(=O)O; N(CH2CH2)2CF2 = FC1(F)CCN(*)CC1; NMeD = CN[C@@H](CC(=O)O)C(=O)O; dNMeD = CN[C@H](CC(=O)O)C(=O)O; NMeL = CN[C@@H](CC(C)C)C(=O)O; NEtAla = CCN[C@@H](C)C(=O)O; NMeV = CN[C@H](C(=O)O)C(C)C; d(β3hA) = C[C@@H](N)CC(=O)O; NMeA = CN[C@@H](C)C(=O)O; NMeAib = CNC(C)(C)C(=O)O; Piperidide = C1CCN(*)CC1; dNMeA = CN[C@H](C)C(=O)O; Ac5c = NC1(C(=O)O)CCCC1; Aze = O=C(O)[C@@H]1CCN1; Sar = CNCC(=O)O

Legend:
[1] = molecular target: protein-protein interaction between Kras and SOS1 (biotin-tagged human Kras loaded with GDP, His-tagged human SOS1) (Homo sapiens (Human), UniProt P01116, G12D); assay: Protein-protein interaction inhibition between Kras and SOS1 (KrasG12D-SOS PPI) using AlphaScreen; type: biochemical; details: AlphaScreen; biotin-tagged human Kras loaded with GDP, His-tagged human SOS1; read-out: KRAS G12D-SOS PPI IC50;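 further: kras produced in E. coli, Ni-coupled donor beads and streptavidin acceptor beads, excitation 680 nm with emission detected at 520–620 nm via singlet oxygen transfer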
[2] = system: Human pancreatic cancer cell line AsPC-1 (G12D mutation Kras); assay: AsPC-1 cell growth inhibition (AsPC-1 CGI); type: cell-based; details: read-out: AsPC-1 cell growth inhibition, 50% growth inhibitory concentration (IC50 value); 96 hours, CellTiter-Glo, values classified in ranges
Procedure: Test compounds were serially dilated with dimethyl sulfoxide, and 200 nL was then dispensed to a U-bottom 96-well plate using Labcyte Echo. […] The cell suspension was dispensed to a. plate containing a test compound at 100 μL per well and incubated at 37° C. in a 5% carbon dioxide gas incubator. 96 hours later, 80 μL of CellTiter-Glo (Promega) was added to each well and fluorescence was measured.

Compound | IC50 [1] | IC50 [2]
CC(C)C[C@@H]1NC(=O)C(C)(C)N(C)C(=O)[C@H](CC(C)C)NC(=O)[C@H](CCc2ccc(C(F)(F)F)c(F)c2)NC(=O)CN(C)C(=O)[C@H](Cc2ccc(Cl)cc2)N(C)C(=O)CN(C)C(=O)CN(C)C(=O)[C@H](C(C)C)NC(=O)[C@H](CC(C)C)N(C)C(=O)C[C@@H](C)N(C)C1=O [Compound 956] (cyclo(L[NMeAib]L[NMedβ3hAla][NMeL]V[Sar][Sar][NMePhe(4-Cl)][Sar][hPhe(3-F,4-CF3)])) | 80 nM | > 500 nM
CC[C@H](C)[C@@H]1NC(=O)[C@H](C)N(C)C(=O)C[C@@H](C(=O)N2CCCCC2)N(C)C(=O)[C@H](C(C)C)N(C)C(=O)C2(CCCC2)NC(=O)[C@H](Cc2ccccc2Cl)N(C)C(=O)[C@H](CCc2ccc(C(F)(F)F)c(Cl)c2)NC(=O)CN(C)C(=O)[C@H](CC2CCCCC2)N(C)C(=O)CN(C)C(=O)CN(C)C1=O [Compound 963] ([NMeA]I[Sar][Sar][NMeCha][Sar][hPhe(3-Cl-4-CF3)][NMePhe(2-Cl)][Ac5c][NMeV][NMeD]-Piperidide; lactam N-11) | 13 nM | > 500 nM
CC[C@H](C)[C@@H]1NC(=O)[C@H](CC(C)C)N(C)C(=O)C[C@@H](C(=O)N(C)C)N(C)C(=O)[C@H](C2CCCC2)N(C)C(=O)C2(CCCC2)NC(=O)[C@@H]2CCCN2C(=O)[C@H](CCc2cc(F)c(C(F)(F)F)c(F)c2)NC(=O)CN(C)C(=O)[C@H](Cc2ccc(C)cc2)N(C)C(=O)[C@@H]2CCN2C(=O)[C@H](C)N(C)C1=O [Compound 965] ([NMeL]I[NMeA][Aze][NMePhe(4-Me)][Sar][hPhe(3,5-F2-4-CF3)]P[Ac5c][NMeGly(cPent)][NMeD]-NMe2; lactam N-11) | 0.86 nM | ≤ 20 nM
CC[C@H](C)[C@@H]1NC(=O)[C@H](CC(C)C)N(C)C(=O)C[C@@H](C)N(C)C(=O)[C@H](C(C)C)NC(=O)C(C)(C)N(C)C(=O)[C@H](CC(C)C)NC(=O)[C@H](CCc2ccc(C(F)(F)F)c(F)c2)NC(=O)CN(C)C(=O)[C@H](CC2CCCCC2)N(C)C(=O)CN(C)C(=O)CN(C)C1=O [Compound 967] (cyclo(I[Sar][Sar][NMeCha][Sar][hPhe(3-F,4-CF3)]L[NMeAib]V[NMedβ3hAla][NMeL])) | 58 nM | > 500 nM
CC[C@H](C)[C@@H]1NC(=O)[C@H](CC(C)C)N(C)C(=O)C[C@@H](C(=O)N2C3CCC2COC3)N(C)C(=O)[C@H](C2CCCC2)N(C)C(=O)C2(CCCC2)NC(=O)[C@@H]2CCCN2C(=O)[C@H](CCc2ccc(C(F)(F)F)c(Cl)c2)NC(=O)CN(C)C(=O)[C@H](CC2CCCCC2)N(C)C(=O)[C@@H]2CCN2C(=O)[C@H](C)N(C)C1=O [Compound 973] ([NMeL]I[NMeA][Aze][NMeCha][Sar][hPhe(3-Cl-4-CF3)]P[Ac5c][NMeGly(cPent)][NMeD]-{3Oxa8azabicyclo(3.2.1)octane}; lactam N-11) | 2.8 nM | ≤ 20 nM
CC[C@H](C)[C@@H]1NC(=O)[C@H](CC(C)C)N(C)C(=O)C[C@@H](C(=O)N(C)C)N(C)C(=O)[C@H]([C@@H](C)CC)N(C)C(=O)C2(CCCC2)NC(=O)[C@@H]2CCCN2C(=O)[C@H](CCc2ccc(C(F)(F)F)c(F)c2)NC(=O)CN(C)C(=O)[C@H](CC2CCCCC2)N(C)C(=O)[C@@H]2CCN2C(=O)[C@H](C)N(C)C1=O [Compound 999] ([NMeL]I[NMeA][Aze][NMeCha][Sar][hPhe(3-F,4-CF3)]P[Ac5c][NMeI][NMeD]-NMe2; lactam N-11) | 1.7 nM | ≤ 20 nM
CC[C@H](C)[C@@H]1NC(=O)[C@H](C)N(C)C(=O)C[C@@H](C)NC(=O)[C@H](C2CCCC2)N(C)C(=O)C2(CCCC2)NC(=O)[C@@H]2CCCN2C(=O)[C@H](CCc2ccc(C(F)(F)F)c(Cl)c2)NC(=O)CN(C)C(=O)[C@H](Cc2ccccc2)N(C)C(=O)[C@@H]2CCCN2C(=O)CN(C)C1=O [Compound 1004] (cyclo([Ac5c][NMeGly(cPent)][d(β3hA)][NMeA]I[Sar]P[NMeF][Sar][hPhe(3-Cl-4-CF3)]P)) | 13 nM | > 500 nM
CC[C@H](C)[C@@H]1NC(=O)[C@H](CC(C)C)N(C)C(=O)C[C@@H](C(=O)N(C)C)N(C)C(=O)[C@H](C2CCCC2)N(C)C(=O)[C@H](C(C)C)NC(=O)[C@@H]2CCCN2C(=O)[C@H](CCc2ccc(C(F)(F)F)c(Cl)c2)NC(=O)CN(C)C(=O)[C@H](CC2CCCCC2)N(C)C(=O)[C@@H]2CCN2C(=O)[C@H](C)N(C)C1=O [Compound 1010] ([NMeL]I[NMeA][Aze][NMeCha][Sar][hPhe(3-Cl-4-CF3)]PV[NMeGly(cPent)][NMeD]-NMe2; lactam N-11) | 4.3 nM | > 500 nM
CC[C@H](C)[C@@H]1NC(=O)[C@H](C)N(C)C(=O)C[C@@H](C)NC(=O)[C@H](C2CCCC2)N(C)C(=O)C2(CCCC2)NC(=O)[C@@H]2CCCN2C(=O)[C@H](CCc2ccc(C(F)(F)F)c(Cl)c2)NC(=O)[C@@H](C)N(C)C(=O)[C@H](Cc2cccnc2)N(C)C(=O)[C@@H]2CCN2C(=O)[C@H](C)N(C)C1=O [Compound 1011] (cyclo([Ac5c][NMeGly(cPent)][d(β3hA)][NMeA]I[NMeA][Aze][NMe3Pal][dNMeA][hPhe(3-Cl-4-CF3)]P)) | 38 nM | > 500 nM
CC[C@H](C)[C@@H]1NC(=O)[C@H](CC(C)C)N(C)C(=O)C[C@@H](C(=O)N(C)C)N(C)C(=O)[C@H]([C@@H](C)CC)N(C)C(=O)C2(CCCC2)NC(=O)[C@@H]2CCCN2C(=O)[C@H](CCc2ccc(C(F)(F)F)c(F)c2)NC(=O)CN(C)C(=O)[C@H](Cc2ccc(C)cc2)N(C)C(=O)[C@@H]2CCN2C(=O)[C@H](C)N(C)C1=O [Compound 1017] ([NMeL]I[NMeA][Aze][NMePhe(4-Me)][Sar][hPhe(3-F,4-CF3)]P[Ac5c][NMeI][NMeD]-NMe2; lactam N-11) | 0.88 nM | ≤ 20 nM
CC[C@H](C)[C@@H]1NC(=O)[C@H](C)N(C)C(=O)C[C@@H](C(=O)N2CCCCC2)N(C)C(=O)[C@H](C(C)C)N(C)C(=O)C2(CCCC2)NC(=O)[C@@H]2CCCN2C(=O)[C@H](CCc2ccc(C(F)(F)F)c(F)c2)NC(=O)CN(C)C(=O)[C@H](CC2CCCCC2)N(C)C(=O)[C@@H]2CCN2C(=O)[C@H](C)N(C)C1=O [Compound 1024] ([NMeA]I[NMeA][Aze][NMeCha][Sar][hPhe(3-F,4-CF3)]P[Ac5c][NMeV][NMeD]-Piperidide; lactam N-11) | 1.9 nM | > 500 nM
CC[C@H](C)[C@@H]1NC(=O)[C@H](C)N(C)C(=O)C[C@@H](C(=O)N2CCCCC2)N(C)C(=O)[C@H](C(C)C)N(C)C(=O)C2(CCCC2)NC(=O)[C@@H](CC(=O)N2CCC(F)(F)CC2)N(C)C(=O)[C@H](CCc2ccc(C(F)(F)F)c(Cl)c2)NC(=O)CN(C)C(=O)[C@H](CC2CCCCC2)N(C)C(=O)CN(C)C(=O)CN(C)C1=O [Compound 1025] ([NMeA]I[Sar][Sar][NMeCha][Sar][hPhe(3-Cl-4-CF3)][dNMeD](N(CH2CH2)2CF2)[Ac5c][NMeV][NMeD]-Piperidide; lactam N-11) | 4.3 nM | > 500 nM
CC[C@H](C)[C@@H]1NC(=O)[C@H](C)N(C)C(=O)C[C@@H](C(=O)N2CCCCC2)N(C)C(=O)[C@H](C(C)C)N(C)C(=O)C(C)(C)N(C)C(=O)[C@@H]2CCCN2C(=O)[C@H](CCc2ccc(C(F)(F)F)c(Cl)c2)NC(=O)CN(C)C(=O)[C@H](CC2CCCCC2)N(C)C(=O)[C@@H]2CCN2C(=O)[C@H](C)N(C)C1=O [Compound 1034] ([NMeA]I[NMeA][Aze][NMeCha][Sar][hPhe(3-Cl-4-CF3)]P[NMeAib][NMeV][NMeD]-Piperidide; lactam N-11) | 1.7 nM | > 500 nM
CC[C@H](C)[C@@H]1NC(=O)[C@H](CCC(C)C)N(C)C(=O)C[C@@H](C(=O)N(C)C)N(C)C(=O)[C@H]([C@@H](C)CC)N(C)C(=O)C2(CCCC2)NC(=O)[C@@H]2CCCN2C(=O)[C@H](CCc2ccc(C(F)(F)F)c(Cl)c2)NC(=O)CN(C)C(=O)[C@H](Cc2ccc(C)cc2)N(C)C(=O)[C@@H]2CCN2C(=O)[C@H](C)N(C)C1=O [Compound 1042] ([NMehLeu]I[NMeA][Aze][NMePhe(4-Me)][Sar][hPhe(3-Cl-4-CF3)]P[Ac5c][NMeI][NMeD]-NMe2; lactam N-11) | 0.72 nM | ≤ 20 nM
CC[C@H](C)[C@@H]1NC(=O)[C@H](CC(C)C)N(C)C(=O)C[C@@H](C(=O)N2CCCCC2)N(C)C(=O)[C@H](C2CCCCC2)N(C)C(=O)C2(CCCC2)NC(=O)[C@H](C)N(CC)C(=O)[C@H](CCc2ccc(C(F)(F)F)c(Cl)c2)NC(=O)CN(C)C(=O)[C@H](CC2CCCCC2)N(C)C(=O)CN(C)C(=O)CN(C)C1=O [Compound 1045] ([NMeL]I[Sar][Sar][NMeCha][Sar][hPhe(3-Cl-4-CF3)][NEtAla][Ac5c][NMeChg][NMeD]-Piperidide; lactam N-11) | 6.7 nM | > 500 nM
CC[C@H](C)[C@@H]1NC(=O)[C@H](CC(C)C)N(C)C(=O)C[C@@H](C)N(C)C(=O)[C@H](CC(C)C)NC(=O)C(C)(C)N(C)C(=O)[C@H](C(C)C)NC(=O)[C@H](CCc2ccc(C(F)(F)F)c(F)c2)NC(=O)CN(C)C(=O)[C@H](Cc2ccc(Cl)cc2)N(C)C(=O)CN(C)C(=O)CN(C)C1=O [Compound 1054] (cyclo(I[Sar][Sar][NMePhe(4-Cl)][Sar][hPhe(3-F,4-CF3)]V[NMeAib]L[NMedβ3hAla][NMeL])) | 120 nM | > 500 nM
CC[C@H](C)[C@@H]1NC(=O)[C@H](C)N(C)C(=O)C[C@@H](C)NC(=O)[C@H](C(C)C)N(C)C(=O)C2(CCCC2)NC(=O)[C@@H]2CCCN2C(=O)[C@H](CCc2ccc(C(F)(F)F)c(Cl)c2)NC(=O)CN(C)C(=O)[C@H](CC2CCCCC2)N(C)C(=O)[C@@H]2CCCN2C(=O)CN(C)C1=O [Compound 1056] (cyclo([Ac5c][NMeV][d(β3hA)][NMeA]I[Sar]P[NMeCha][Sar][hPhe(3-Cl-4-CF3)]P)) | 18 nM | > 500 nM
